Reference: the supplement of paper PMC6965134
± gives the standard deviation of the averaged measurements.

Test: TIMS collisional cross section (CCS, N2) of the lipid ion; higher = larger ion cross section
Details: ionization mode: positive, one isomer drawn

With `CCCCCC/C=C\CCCCCCCC(=O)OC[C@H](COC(=O)CCCCCCC/C=C\CCCCCCCC)OC(=O)CCCCCCC/C=C\CCCCCCC` [TG 16:1_17:1_18:1] (ion (formula + adduct): [C54H98O6+NH4] 1+) the “TIMS collisional cross section” value (sample type: HeLa) was 316.5 Å².
With `CCCCC/C=C\C/C=C\CCCCCCCC(=O)OC[C@@H](COC(=O)CCCCCCC/C=C\CCCCCC)OC(=O)CCCCCCC/C=C\CCCCCCC` [TG 16:1_17:1_18:2] (ion (formula + adduct): [C54H96O6+NH4] 1+) the “TIMS collisional cross section” value (sample type: HeLa) was 315.1 Å², the “TIMS collisional cross section” value (sample type: Liver) was 313.9 Å² and the “TIMS collisional cross section” value (sample type: plasma) was 314.6 Å².
With `CC/C=C\C/C=C\C/C=C\CCCCCCCC(=O)OC[C@@H](COC(=O)CCCCCCC/C=C\CCCCCC)OC(=O)CCCCCCC/C=C\CCCCCCC` [TG 16:1_17:1_18:3] (ion (formula + adduct): [C54H94O6+NH4] 1+) the “TIMS collisional cross section” value (sample type: HeLa) was 314.8 Å².
With `CCCCC/C=C\C/C=C\CCCCCCCC(=O)OC[C@@H](COC(=O)CCCCCCC/C=C\CCCCCC)OC(=O)CCCCCCCCCCCCCCCCC` [TG 16:1_18:0_18:2] (ion (formula + adduct): [C55H100O6+NH4] 1+) the “TIMS collisional cross section” value (sample type: HeLa) was 319.7 Å² and the “TIMS collisional cross section” value (sample type: Liver) was 319.7 Å².
For `CCCCCC/C=C\CCCCCCCC(=O)OC[C@H](COC(=O)CCCCCCCCC/C=C\CCCCCCCC)OC(=O)CCCCCCCCCCCCCCCCC` [TG 16:1_18:0_20:1] (ion (formula + adduct): [C57H106O6+NH4] 1+), the “TIMS collisional cross section” value (sample type: Liver) was 328.2 Å².
In the case of `CCCCC/C=C\C/C=C\C/C=C\C/C=C\CCCC(=O)OC[C@@H](COC(=O)CCCCCCC/C=C\CCCCCC)OC(=O)CCCCCCCCCCCCCCCCC` [TG 16:1_18:0_20:4] (ion (formula + adduct): [C57H100O6+NH4] 1+), the “TIMS collisional cross section” value (sample type: Liver) is reported as 324.7 Å².
In the case of `CCCCCC/C=C\CCCCCCCC(=O)OC[C@H](COC(=O)CCCCCCCCCCCCCCCCCCCCC)OC(=O)CCCCCCCCCCCCCCCCC` [TG 16:1_18:0_22:0] (ion (formula + adduct): [C59H112O6+NH4] 1+), the “TIMS collisional cross section” value (sample type: plasma) is reported as 335.9 Å².
In the case of `CC/C=C\C/C=C\C/C=C\C/C=C\C/C=C\C/C=C\CCC(=O)OC[C@@H](COC(=O)CCCCCCC/C=C\CCCCCC)OC(=O)CCCCCCCCCCCCCCCCC` [TG 16:1_18:0_22:6] (ion (formula + adduct): [C59H100O6+NH4] 1+), the “TIMS collisional cross section” value (sample type: HeLa) is reported as 327.7 Å².
With `CCCCCC/C=C\CCCCCCCC(=O)OC[C@H](COC(=O)CCCCCCC/C=C\CCCCCCCC)OC(=O)CCCCCCC/C=C\CCCCCCCC` [TG 16:1_18:1_18:1] (ion (formula + adduct): [C55H100O6+NH4] 1+) the “TIMS collisional cross section” value (sample type: HeLa) was 320 Å² and the “TIMS collisional cross section” value (sample type: plasma) was 320.1 Å².
In the case of `CCCCC/C=C\C/C=C\CCCCCCCC(=O)OC[C@@H](COC(=O)CCCCCCC/C=C\CCCCCC)OC(=O)CCCCCCC/C=C\CCCCCCCC` [TG 16:1_18:1_18:2] (ion (formula + adduct): [C55H98O6+NH4] 1+), the “TIMS collisional cross section” value (sample type: HeLa) is reported as 318.2 Å², the “TIMS collisional cross section” value (sample type: Liver) is reported as 317.35 ± 0.35 Å² and the “TIMS collisional cross section” value (sample type: plasma) is reported as 317.4 ± 0.42 Å².
For `CCCCCC/C=C\CCCCCCCC(=O)OC[C@H](COC(=O)CCCCCCCCC/C=C\CCCCCCCC)OC(=O)CCCCCCC/C=C\CCCCCCCC` [TG 16:1_18:1_20:1] (ion (formula + adduct): [C57H104O6+NH4] 1+), the “TIMS collisional cross section” value (sample type: HeLa) was 326 Å² and the “TIMS collisional cross section” value (sample type: Liver) was 327 Å².
With `CCCCC/C=C\C/C=C\CCCCCCCCCC(=O)OC[C@@H](COC(=O)CCCCCCC/C=C\CCCCCC)OC(=O)CCCCCCC/C=C\CCCCCCCC` [TG 16:1_18:1_20:2] (ion (formula + adduct): [C57H102O6+NH4] 1+) the “TIMS collisional cross section” value (sample type: Liver) was 324.7 Å².
With `CCCCC/C=C\C/C=C\C/C=C\C/C=C\CCCC(=O)OC[C@@H](COC(=O)CCCCCCC/C=C\CCCCCC)OC(=O)CCCCCCC/C=C\CCCCCCCC` [TG 16:1_18:1_20:4] (ion (formula + adduct): [C57H98O6+NH4] 1+) the “TIMS collisional cross section” value (sample type: Liver) was 323.5 Å².
In the case of `CC/C=C\C/C=C\C/C=C\C/C=C\C/C=C\CCCCCC(=O)OC[C@@H](COC(=O)CCCCCCC/C=C\CCCCCC)OC(=O)CCCCCCC/C=C\CCCCCCCC` [TG 16:1_18:1_22:5] (ion (formula + adduct): [C59H100O6+NH4] 1+), the “TIMS collisional cross section” value (sample type: HeLa) is reported as 325.9 Å² and the “TIMS collisional cross section” value (sample type: plasma) is reported as 327.7 Å².
For `CCCCC/C=C\C/C=C\CCCCCCCC(=O)OC[C@@H](COC(=O)CCCCCCC/C=C\CCCCCC)OC(=O)CCCCCCC/C=C\C/C=C\CCCCC` [TG 16:1_18:2_18:2] (ion (formula + adduct): [C55H96O6+NH4] 1+), the “TIMS collisional cross section” value (sample type: Liver) was 315.45 ± 0.49 Å².
For `CC/C=C\C/C=C\C/C=C\CCCCCCCC(=O)OC[C@@H](COC(=O)CCCCCCC/C=C\CCCCCC)OC(=O)CCCCCCC/C=C\C/C=C\CCCCC` [TG 16:1_18:2_18:3] (ion (formula + adduct): [C55H94O6+NH4] 1+), the “TIMS collisional cross section” value (sample type: Liver) was 312.8 Å² and the “TIMS collisional cross section” value (sample type: plasma) was 314.1 Å².
In the case of `CCCCC/C=C\C/C=C\CCCCCCCCCCCC(=O)OC[C@@H](COC(=O)CCCCCCC/C=C\CCCCCC)OC(=O)CCCCCCC/C=C\CCCCCCCCC` [TG 16:1_19:1_22:2] (ion (formula + adduct): [C60H108O6+NH4] 1+), the “TIMS collisional cross section” value (sample type: HeLa) is reported as 332.3 Å².
In the case of `CCCCC/C=C\C/C=C\C/C=C\C/C=C\CCCC(=O)OC[C@@H](COC(=O)CCCCCCC/C=C\CCCCCC)OC(=O)CCC/C=C\C/C=C\C/C=C\C/C=C\CCCCC` [TG 16:1_20:4_20:4] (ion (formula + adduct): [C59H96O6+NH4] 1+), the “TIMS collisional cross section” value (sample type: HeLa) is reported as 323 Å².
For `CC/C=C\C/C=C\C/C=C\C/C=C\C/C=C\CCCCCC(=O)OC[C@@H](COC(=O)CCCCCCC/C=C\CCCCCC)OC(=O)CCC/C=C\C/C=C\C/C=C\C/C=C\CCCCC` [TG 16:1_20:4_22:5] (ion (formula + adduct): [C61H98O6+NH4] 1+), the “TIMS collisional cross section” value (sample type: HeLa) was 328.2 Å².
With `CC/C=C\C/C=C\C/C=C\C/C=C\C/C=C\C/C=C\CCC(=O)OC[C@@H](COC(=O)CCCCCCC/C=C\CCCCCC)OC(=O)CCCCC/C=C\C/C=C\C/C=C\C/C=C\C/C=C\CC` [TG 16:1_22:5_22:6] (ion (formula + adduct): [C63H98O6+NH4] 1+) the “TIMS collisional cross section” value (sample type: HeLa) was 332.4 Å².
For `CC/C=C\C/C=C\C/C=C\C/C=C\C/C=C\C/C=C\CCC(=O)OC[C@@H](COC(=O)CCCCCCC/C=C\CCCCCC)OC(=O)CC/C=C\C/C=C\C/C=C\C/C=C\C/C=C\C/C=C\CC` [TG 16:1_22:6_22:6] (ion (formula + adduct): [C63H96O6+NH4] 1+), the “TIMS collisional cross section” value (sample type: HeLa) was 329.5 Å².
For `CCCCCCC/C=C\CCCCCCCC(=O)O[C@@H](COC(=O)CCCCCCC/C=C\CCCCCCCC)COC(=O)CCCCCCCCCCCCCCCC` [TG 17:0_17:1_18:1] (ion (formula + adduct): [C55H102O6+NH4] 1+), the “TIMS collisional cross section” value (sample type: HeLa) was 322.1 Å², the “TIMS collisional cross section” value (sample type: Liver) was 322.4 Å² and the “TIMS collisional cross section” value (sample type: plasma) was 322.7 Å².
In the case of `CCCCCCCC/C=C\CCCCCCCC(=O)OC[C@@H](COC(=O)CCCCCCCCCCCCCCCC)OC(=O)CCCCCCCCCCCCCCCCC` [TG 17:0_18:0_18:1] (ion (formula + adduct): [C56H106O6+NH4] 1+), the “TIMS collisional cross section” value (sample type: HeLa) is reported as 327.3 Å², the “TIMS collisional cross section” value (sample type: Liver) is reported as 327.7 Å² and the “TIMS collisional cross section” value (sample type: plasma) is reported as 327.4 Å².
